Assay results taken from patent US10538535B2, “Antitumoral compounds” (priority 2017, dated 2020).
Read-outs that look alike come from different tables or passages of the source.

Tests used:
Experiment in all cases: cells
Details in all cases: for CC50: read-out: LC50; for IC (TGI): read-out: TGI
PSN1 cells = tested on: PSN1 cells
From the text: (§1) The aim of this assay is to evaluate the in vitro cytostatic (ability to delay or arrest tumor cell growth) or cytotoxic (ability to kill tumor cells) activity of the samples being tested.
(§2) A colorimetric assay, using sulforhodamine B (SRB) reaction has been adapted to provide a quantitative measurement of cell growth and viability (following the technique described by Skehan et al. J. Natl. Cancer Inst. 1990, 82, 1107-1112). Another colorimetric assay based on 3-(4,5-Dimethylthiazol-2-yl)-2,5-diphenyltetrazolium bromide (MTT) reduction to a purple formazan has been also used to assess the antiproliferative activity (following the technique described by Mosmann et al. J. Immunol. Meth. 1983, 65, 55-63).
(§3) These forms of assays employ 96-well cell culture microplates following the standards of the American National Standards Institute and the Society for Laboratory Automation and Screening (ANSI SLAS 1-2004 (R2012) Oct. 12, 2011. All the cell lines used in this study were obtained from the American Type Culture Collection (ATCC) and derive from different types of human cancer.
(§4) A549, HT29, MDA-MB-231 and PSN1 cells were maintained in Dulbecco's Modified Eagle Medium (DMEM) while PC-3 and 22Rv1 cells were maintained in Roswell Park Memorial Institute Medium (RPMI). All cell lines were supplemented with 10% Fetal Bovine Serum (FBS), 2 mM L-glutamine, 100 U/mL penicillin, and 100 […] at 37° C., 5% CO2 and 98% humidity. For the experiments, cells were harvested from subconfluent cultures using trypsinization and resuspended in fresh medium before counting and plating.
(§5) A549, HT29, MDA-MB-231 and PSN1 cells were seeded in 96 well microtiter plates, at 5000 cells per well in aliquots of 150 μL, and allowed to attach to the plate surface for 18 hours (overnight) in drug free medium. After that, one control (untreated) plate of each cell line was fixed (as described below) and used for time zero reference value. Culture plates were then treated with test compounds (50 μL aliquots of 4× stock solutions in complete culture medium plus 4% DMSO) using ten 2/5 serial dilutions (concentrations ranging from 10 to 0.003 μg/mL) and triplicate cultures (1% final concentration in DMSO). After 72 hours treatment, the antitumor effect was measured by using the SRB methodology: Briefly, cells were washed twice with PBS, fixed for 15 min in 1% glutaraldehyde solution at room temperature, rinsed twice in PBS, and stained in 0.4% SRB solution for 30 min at room temperature. Cells were then rinsed several times with 1% acetic acid solution and air-dried at room temperature.
(§6) Effects on cell growth and survival were estimated by applying the NCI algorithm (Boyd M R and Paull K D. Drug Dev. Res. 1995, 34, 91-104). The values obtained in triplicate cultures were fitted by nonlinear regression to a four-parameters logistic curve by nonlinear regression analysis.

A549 cells = tested on: A549 cells
From the text: as §1, §2, §3, §4, §5, §6

HT29 cells = tested on: HT29 cells
From the text: as §1, §2, §3, §4, §5, §6

MDA-MB-231 cells = tested on: MDA-MB-231 cells
From the text: as §1, §2, §3, §4, §5, §6

[1] = Homo sapiens, PSN1, 72 h, PSN1, 72 hours treatment, SRB
[2] = MDA-MB-231, 72 hours treatment, SRB

SMILES	CC50 (PSN1 cells; Homo sapiens, PSN1, 72 h) [nM]	IC (TGI) (PSN1 cells; Homo sapiens, PSN1, 72 h) [nM]	GI50 (A549 cells; Homo sapiens, A549, 72 h) [nM]	CC50 (A549 cells; Homo sapiens, A549, 72 h) [nM]	IC (TGI) (A549 cells; Homo sapiens, A549, 72 h) [nM]	GI50 (HT29 cells; Homo sapiens, HT-29, 72 h) [nM]	CC50 (HT29 cells; Homo sapiens, HT-29, 72 h) [nM]	IC (TGI) (HT29 cells; Homo sapiens, HT-29, 72 h) [nM]	GI50 (MDA-MB-231 cells; Homo sapiens, MDA-MB-231, 72 h) [nM]	CC50 (MDA-MB-231 cells; Homo sapiens, MDA-MB-231, 72 h) [nM]	IC (TGI) (MDA-MB-231 cells; Homo sapiens, MDA-MB-231, 72 h) [nM]	GI50 (PSN1 cells; [1]) [nM]	further results
COc1ccc2[nH]c3c(c2c1)C[C@H](C(=O)O)N[C@]31CS[C@@H]2c3c(OC(C)=O)c(C)c4c(c3[C@H](COC1=O)N1[C@@H]2[C@H]2c3c(cc(C)c(OC)c3O)C[C@@H]([C@@H]1O)N2C)OCO4 [Compound 29-R]	35	31.4	90.5	> 1210	193	30.2	> 1210	32.6	16.9	157	27.7		GI50 (PSN1 cells; Homo sapiens, PSN1, 72 h): 30.2 nM
COc1ccc2[nH]c3c(c2c1)C[C@H](CN)N[C@]31CS[C@@H]2c3c(OC(C)=O)c(C)c4c(c3[C@H](COC1=O)N1[C@@H]2[C@H]2c3c(cc(C)c(OC)c3O)C[C@@H]([C@@H]1C#N)N2C)OCO4 [Compound 26-R]	3.52	1.7	1.94	> 122	3.4	0.729	> 122	1.58	1.17	1.46	1.22	0.972	
COc1ccc2[nH]c3c(c2c1)C[C@H](CO)N[C@]31CS[C@@H]2c3c(OC(C)=O)c(C)c4c(c3[C@H](COC1=O)N1[C@@H]2[C@H]2c3c(cc(C)c(OC)c3O)C[C@@H]([C@@H]1C#N)N2C)OCO4 [Compound 18-R]		1.06			1.34			1.34		1.46	1.34	0.57	GI50 (PSN1 cells; PSN1, 72 hours treatment, SRB): 0.571 nM
COc1ccc2[nH]c3c(c2c1)C[C@@H](CN)N[C@]31CS[C@@H]2c3c(OC(C)=O)c(C)c4c(c3[C@H](COC1=O)N1[C@@H]2[C@H]2c3c(cc(C)c(OC)c3O)C[C@@H]([C@@H]1O)N2C)OCO4 [Compound 27-S]	4.55	2.83	6.02	> 123	11.2		> 123	1.35	1.19	1.35		1.97	
COc1ccc2[nH]c3c(c2c1)CCNC31CSC2c3c(OC(C)=O)c(C)c4c(c3C(COC1=O)N1C(C#N)C3Cc5cc(C)c(OC)c(O)c5C(C21)N3C)OCO4 (stereo not shown) [E]													GI50 (PSN1 cells; PSN1, 72 hours treatment, SRB): 2.77 nM; TGI (PSN1 cells; PSN1, 72 hours treatment, SRB): 4.53E−09 Molar; CC50 (PSN1 cells; PSN1, 72 hours treatment, SRB): 8.94 nM; GI50 (A549 cells; A549, 72 hours treatment, SRB): 3.28 nM; TGI (A549 cells; A549, 72 hours treatment, SRB): 3.40E−09 Molar; CC50 (A549 cells; A549, 72 hours treatment, SRB): 4.41 nM; GI50 (HT29 cells; HT29, 72 hours treatment, SRB): 3.15 nM; TGI (HT29 cells; HT29, 72 hours treatment, SRB): 3.40E−09 Molar; CC50 (HT29 cells; HT29, 72 hours treatment, SRB): > 126 nM; GI50 (MDA-MB-231 cells; [2]): 2.27 nM; TGI (MDA-MB-231 cells; [2]): 3.78E−09 Molar; CC50 (MDA-MB-231 cells; [2]): 7.43 nM
C=CCOC(=O)NC[C@@H]1Cc2c([nH]c3ccccc23)[C@@]2(CS[C@@H]3c4c(OC(C)=O)c(C)c5c(c4[C@H](COC2=O)N2[C@@H]3[C@H]3c4c(cc(C)c(OC)c4O)C[C@@H]([C@@H]2C#N)N3C)OCO5)N1 [Compound 10-S]							> 1140						
COc1c(C)cc2c(c1O)[C@@H]1[C@@H]3[C@@H]4SC[C@]5(N[C@H](COC(C)=O)Cc6c5[nH]c5ccccc65)C(=O)OC[C@@H](c5c6c(c(C)c(OC(C)=O)c54)OCO6)N3[C@@H](O)[C@H](C2)N1C [Compound 4a-S]				> 121			> 121						
COc1c(C)cc2c(c1O)[C@@H]1[C@@H]3[C@@H]4SC[C@]5(N[C@@H](CO)Cc6c5oc5ccccc65)C(=O)OC[C@@H](c5c6c(c(C)c(OC(C)=O)c54)OCO6)N3[C@@H](O)[C@H](C2)N1C [Compound 39-R]				> 127			> 127						
COc1c(C)cc2c(c1O)[C@@H]1[C@@H]3[C@@H]4SC[C@]5(N[C@H](C)Cc6c5[nH]c5ccccc65)C(=O)OC[C@@H](c5c6c(c(C)c(OC(C)=O)c54)OCO6)N3[C@@H](C#N)[C@H](C2)N1C [A]	19.3	15.4	8.36	> 129	8.87	7.71	> 129	8.36	7.07	14.1	9.38		GI50 (PSN1 cells; Homo sapiens, PSN1, 72 h): 12.9 nM
